Laboratory results published in patent US9463195B2, “Dissolution of amyloid fibrils by flavonoids and other compounds” (The Regents of the University of California, priority 2006, dated 2016).
Structures can show the parent of a compound that is named as a salt. Where two headings read alike, the source gives them in different places.

How the values were obtained:
[1] = target: T1, preformed human β-2 microglobulin fibrils (Homo sapiens, UniProt P61769); test: Thioflavin T fluorescence high-throughput screen (slope assay score) for disruption of preformed fibrils; assay type: biochemical; details: for Slope Assay Score: slope of relative ThT fluorescence versus time, more negative = stronger disruption
Method: As used herein, “slope assay score” means the slope of the relative fluorescence of thioflavin T versus time curve for a given compound in a thioflavin T fluorescence assay. A negative slope signifies a decrease in thioflavin T fluorescence over time.
The human β-2 microglobulin fibrils were prepared in vitro at 0.1 mg/mL protein in 25 mM phosphate, pH 2, 0.2 M NaCl without agitation for 1 week at 37° C., in the same manner as Ivanova et al. See Ivanova et al. (Proc Natl Acad Sci U.S.A. 2004 Jul. 20; 101(29):10584-9).
In our experiments, disruption of the fibrillar structure of preformed β-2 microglobulin fibrils was monitored by fluorescence. The dye used, thioflavin T, serves as a probe for the presence or absence of amyloid fibrils. Thioflavin T binds specifically to human β-2 microglobulin fibrils, causing a red shift in the fluorescence excitation spectra of the dye to produce a peak in the fluorescence emission spectrum at 482 nm when the excitation wavelength is set at 444 nm. […] Because aliquotting of fibrils has an inherent variability, we aimed for a high signal/noise ratio of ˜10.
In the fluorescence assay used here, preformed human β-2 microglobulin fibrils were mixed with a solution of 5 μM ThT in 50 mM glycine, pH 8.6 in a 3:14 ratio (final concentrations: 4.1 μM ThT, 41.2 mM glycine, 0.018 mg/mL β-2 microglobulin, 35 mM NaCl and 4.4 mM phosphate). Fluorescence was measured immediately after mixing (excitation wavelength set at 444 nm, emission wavelengths at 482, 490, and 502 nm) with a Molecular Devices FlexStation II.
In our experiments, we screened 5200 compounds to determine whether a compound could disrupt preformed human β-2 microglobulin fibrils. Preformed β-2 microglobulin fibrils and ThT were mixed in the ratios described above in Example 2 and divided among seventeen 384-well glass-bottom plates (Costar #6569) using 40 μL/well. Each of the sixteen commercial plates contained four columns of control wells: columns 1, 2, and 23 contained preformed fibrils+dimethylsulfoxide (herein, DMSO), but no compound; column 24 contained nonfibrillar β2M+DMSO (no compound). The final concentrations of compound and DMSO in the other wells were 10 μM and 1%, respectively. Compounds were obtained from the following chemical libraries: the MicroSource Discovery Systems, Inc. Spectrum Collection library (J Virology 77: 10288 (2003); Ann Rev Med 56: 321 (2005)), the first four plates from the Prestwick Chemical Inc. library, two BIOMOL plates (phosphatase/kinase inhibitor library and bioactive lipid library), and the first five plates from the ChemBridge Corporation DIVERSet.
Plate 17 was prepared in-house and set up slightly differently than the commercial plates. Column 24 contains nonfibrillar B2M as in the other plates. However, only the first two rows contain added compounds, and the remaining rows contain control samples (fibrils mixed with thioflavin T, no compound). The chemicals used to prepare this supplemental plate were purchased from SIGMA. For each compound, a 1 mM solution in OmniSolv DMSO was prepared and filtered with Millex-FG 0.2 micron filters. The supplementary plate contained compounds at 1 or 10 mM in 100% DMSO, such that the final screening concentration is 10 or 100 μM compound in I% DMSO.
All plates were read manually on a Molecular Devices FlexStation II using the bottom-read function. For each of the wells, an initial fluorescence intensity measurement was taken as a baseline.

[2] = target: T1, preformed human β-2 microglobulin fibrils; test: Electron microscopy as a secondary screen of fibril disruption; assay type: biochemical; details: for state of fibrils by electron microscopy at 10 μM compound / state of fibrils by electron microscopy at 1 mM compound / state of fibrils by electron microscopy at 100 μM compound: two-week incubation; for effect on fibrils by electron microscopy: at the concentrations tested
Method: Electron microscopy was used to confirm the effects of, among others, compounds 22 and L18 on the fibrils. Compounds 22 and L18 were mixed with drug and solvent or solvent alone and were separately incubated with preformed human β-2 microglobulin fibrils for two weeks. Compound 22 was tested at three concentrations (1 mM, 100 μM, and 10 μM). Aliquots were taken immediately after mixing, at day 2, at day 5, day 7, and day 14. Samples were fixed to grids (made hydrophilic by glow-discharge) upon taking the aliquots, washed with distilled water, and stained with 1% uranyl acetate. Grids were examined in a Hitachi H-7000 transmission electron microscope operating at 75 kV. Images were collected on Kodak electron microscope film 4489.

[3] = target: T1, preformed human β-2 microglobulin fibrils; test: Dose-response testing by thioflavin T fluorescence; assay type: biochemical; details: for Dose-Response (conc. at which slope is better than control): ThT/β2M fibril fluorescence, tested 100 nM to 10 mM; for concentration at which preformed human B2M fibrils are disrupted: in the range of
Method: Twelve compounds were selected for testing their dose-response effects. Dose-response curves were derived as follows. Preformed β-2 microglobulin fibrils were mixed with ThT in the ratios described above and divided into portions of 40 μL per well across 8 wells. The final concentrations were the same as used in the high-throughput screen: 4.1 μM ThT, 41.2 mM glycine, 0.018 mg/mL B2M, 35 mM NaCl, 4.4 mM phosphate. The first and last wells of each row were controls (B2M fibrils+ThT+solvent (water or DMSO)). To wells 2-7 of a given row, test compound was added to the β2M fibril/ThT mix such that the following final concentrations in the well were reached: 10 mM, 1 mM, 100 μM, 10 μM, 1 μM, and 100 nM. Each row was set up in duplicate. The wells were incubated for 99 hours and data collected at 2.5 hour intervals. Compound 22 was tested using both water and DMSO as solvent.
It is visually apparent that concentrations down to 10 μM of both compound 22 and L18 affect the B2M/Tht fluorescence.

[4] = cited from earlier work
[5] = orally at doses at least twice this high (Ullmann, Haller et al. 2004); cited from earlier work
β-amyloid fibrils = details: Bush study; cited from earlier work
[6] = system: preformed β-amyloid fibrils; details: Bush 2002; cited from earlier work
[7] = Gordon M et al 2006; cited from earlier work

Row | Compound | effective in the fluorescence assay at disrupting β-2 microglobulin fibers [1] | dose-dependent effect on thioflavin T/β-2 microglobulin fibril fluorescence (words) [3] | effect on fibrils by electron microscopy [2] | Slope Assay Score [1] | concentration at which the compound affects thioflavin T/β-2M fibril fluorescence in a dose-dependent manner [3] | Dose-Response (conc. at which slope is better than control) [3] | other results
1 | Cc1cc(O)c(C=O)c(O)c1C(=O)O [Haematommic Acid] | effective | dose-dependent effect | visibly disrupted | −.076 | less than or equal to 10 μM | 1 µM | state of fibrils by electron microscopy at 10 μM compound [2]: disrupted and unwound; state of fibrils by electron microscopy at 1 mM compound [2]: fibril dissolution was virtually complete
2 | CCn1cc(C(=O)O)c(=O)c2ccc(C)nc21 [nalidixic acid] | effective | – | – | – | – | – | –
3 | OC[C@H]1O[C@@H](Oc2cc(O)cc(/C=C/c3ccc(O)cc3)c2)[C@H](O)[C@@H](O)[C@@H]1O [resveratrol-3-glucoside] | – | – | did not have an effect on fibrils | – | – | – | –
4 | Dobutamine hydrochloride | effective | dose-dependent effect | – | −.058 | less than or equal to 10 μM | 10 µM | –
5 | C=C1c2c(Cl)ccc(O)c2C(O)=C2C(=O)[C@]3(O)C(=O)/C(=C(\N)O)C(=O)[C@@H](N(C)C)[C@@H]3[C@@H](O)[C@H]12 [Meclocycline sulfosalicylate] | effective | dose-dependent effect | visibly disrupted | −.066 | less than or equal to 10 μM | 10 µM | state of fibrils by electron microscopy at 100 μM compound [2]: no intact fibrils present; state of fibrils by electron microscopy at 1 mM compound [2]: no visible fibrils
6 | O=C(O[C@@H]1Cc2c(O)cc(O)cc2O[C@@H]1c1cc(O)c(O)c(O)c1)c1cc(O)c(O)c(O)c1 [Compound 22, Epigallocatechin gallate] | disrupts | dose-dependent | had an effect on fibrils | −.087 | 10 µM | 10 µM | average plasma level ([4]; patients, single oral dose (Chow et al. 2001)): 1 µM; plasma levels reached ([4]; single oral dose (Nakagawa, Okuda and Miyazawa 1997)): 4.4 µM; human plasma levels reached ([4]; single oral dose (Unno et al. 1996)): 2 to 4 µM; solubility in water (Solubility in water): soluble; oral tolerability [5]: well-tolerated; state of fibrils by electron microscopy at 10 μM compound [2]: significantly disrupted; state of fibrils by electron microscopy at 1 mM compound [2]: almost all of the fibrils; concentration at which preformed human B2M fibrils are disrupted [3]: ~10 µM; dose-dependent effect on thioflavin T/β-2 microglobulin fibril fluorescence (words) ([3]; listed as EGCG): dose-related effects
7 | COc1cc(NC(C)CCCN)c2ncccc2c1 (centres unmarked) [Primaquine diphosphate] | effective | dose-dependent effect | – | −.058 | less than or equal to 10 μM | 10 µM | –
8 | CN1CCc2cccc3c2[C@H]1Cc1ccc(O)c(O)c1-3 [Apomorphine hydrochloride hemihydrate] | effective | dose-dependent effect | – | −.061 | less than or equal to 1 μM | 1 to 10 µM | –
9 | Oc1c(I)cc(Cl)c2cccnc12 [Clioquinol] | – | – | – | – | – | – | effectiveness in mice (β-amyloid fibrils): effective; disruption of preformed β-amyloid fibrils [6]: disrupts
10 | NC(CO)C(=O)NNCc1ccc(O)c(O)c1O (centres unmarked) [Compound L18, benserazide hydrochloride] | – | – | had an effect on fibrils | −.066 | 10 µM | 10 µM | plasma concentrations routinely achievable [7]: 6 µM; dose-dependent effect on thioflavin T/β-2 microglobulin fibril fluorescence (words) ([3]; hydrochloride): dose-dependent; concentration at which preformed human B2M fibrils are disrupted [3]: ~10 µM; dose-dependent effect on thioflavin T/β-2 microglobulin fibril fluorescence (words) ([3]; listed as benserazide, hydrochloride): dose-related effects
11 | NCCc1cc(O)c(O)cc1O [oxidopamine] | effective | – | – | – | – | – | –

More lines, main results first:

Row | effective in the fluorescence assay at disrupting β-2 microglobulin fibers [1] | dose-dependent effect on thioflavin T/β-2 microglobulin fibril fluorescence (words) [3] | Compound | effect on fibrils by electron microscopy [2] | Slope Assay Score [1] | concentration at which the compound affects thioflavin T/β-2M fibril fluorescence in a dose-dependent manner [3] | Dose-Response (conc. at which slope is better than control) [3] | other results
12 | effective | – | Cc1cc(N)c2ccccc2[n+]1CCCCCCCCCC[n+]1c(C)cc(N)c2ccccc21 [dequalinium dichloride] | – | – | – | – | –
13 | effective | – | Cc1c(C(=O)O)c(O)cc2c1C(=O)c1c(O)c([C@@H]3O[C@H](CO)[C@@H](O)[C@H](O)[C@H]3O)c(O)c(O)c1C2=O [carminic acid] | – | – | – | – | –
14 | effective | – | Clc1ccc(COC(Cn2ccnc2)c2ccc(Cl)cc2Cl)cc1 (centres unmarked) [econazole nitrate] | – | – | – | – | –
15 | effective | dose-dependent effect | COc1cc(C)c2c(c1C=O)Oc1c(c(C)c(O)c3c1C(O)OC3=O)OC2=O (centres unmarked) [Stictic Acid] | visibly disrupted | −.098 | ≤ 10 µM | 10 µM | state of fibrils by electron microscopy at 100 μM compound [2]: mostly disrupted; state of fibrils by electron microscopy at 1 mM compound [2]: mostly disappeared
16 | effective | – | COC(=O)c1c(C)c2c(c(C)c1O)OC(=O)c1c(C)c(Cl)c(O)c(Cl)c1O2 [leoidin] | – | – | – | – | –
